The source of these data is patent publication US10844057B2, “Process for preparing JAK inhibitors and intermediates thereof” (priority 2018, dated 2020).

Like-named read-outs stand apart in the source and are kept apart here.

Assay [1] has as its target JAK2 (Homo sapiens (Human), UniProt O60674). The assay can be described thus: Biochemical JAK kinase assay (LanthaScreen), JAK2. How it is done:
(§1) Assay 1: Biochemical JAK Kinase Assays
(§2) A panel of four LanthaScreen JAK biochemical assays (JAK1, 2, 3 and Tyk2) were carried in a common kinase reaction buffer (50 mM HEPES, pH 7.5, 0.01% Brij-35, 10 mM MgCl2, and 1 mM EGTA). Recombinant GST-tagged JAK enzymes and a GFP-tagged STAT1 peptide substrate were obtained from Life Technologies.
(§3) Serially diluted compounds were pre-incubated with each of the four JAK enzymes and the substrate in white 384-well microplates (Corning) at ambient temperature for 1 h. ATP was subsequently added to initiate the kinase reactions in 10 μL total volume, with 1% DMSO. […] Kinase reactions were allowed to proceed for 1 hour at ambient temperature before a 10 μL preparation of EDTA (10 mM final concentration) and Tb-anti-pSTAT1 (pTyr701) antibody (Life Technologies, 2 nM final concentration) in TR-FRET dilution buffer (Life Technologies) was added. The plates were allowed to incubate at ambient temperature for 1 h before being read on the EnVision reader (Perkin Elmer). Emission ratio signals (520 nm/495 nm) were recorded and utilized to calculate the percent inhibition values based on DMSO and background controls.
(§4) For dose-response analysis, percent inhibition data were plotted vs. compound concentrations, and IC50 values were determined from a 4-parameter robust fit model with the Prism software (GraphPad Software). Results were expressed as pIC50 (negative logarithm of IC50) and subsequently converted to pKi (negative logarithm of dissociation constant, Ki) using the Cheng-Prusoff equation.
(TR-FRET usually uses a lanthanide donor and a delayed reading to cut background.)

Assay [2] concerns IL-2 stimulated STAT5 phosphorylation in Tall-1 human T cell line. The experiment in a line: Inhibition of IL-2 stimulated pSTAT5 in Tall-1 T cells. Type of assay: cell-based. The method, then:
Assay 2: Inhibition of IL-2 Stimulated pSTAT5 in Tall-1 T Cells
The potency of test compounds for inhibition of interleukin-2 (IL-2) stimulated STAT5 phosphorylation was measured in the Tall-1 human T cell line (DSMZ) using AlphaLisa.
Phosphorylated STAT5 was measured via the AlphaLISA SureFire Ultra pSTAT5 (Tyr694/699) kit (PerkinElmer).
Compounds were serially diluted in DMSO and dispensed acoustically to empty wells. Assay media (phenol red-free DMEM (Life Technologies) supplemented with 10% FBS (ATCC)) was dispensed (4 μL/well) and plates shaken at 900 rpm for 10 mins. Cells were seeded at 45,000 cells/well in assay media (4 μL/well), and incubated at 37° C., 5% CO2 for 1 hour, followed by the addition of IL-2 (R&D Systems; final concentration 300 ng/mL) in pre-warmed assay media (4 μL) for 30 minutes. […] The lysate was shaken at 900 rpm for 10 minutes at room temperature (RT). Phosphorylated STAT5 was measured via the pSTAT5 AlphaLisa kit (PerkinElmer). Freshly prepared acceptor bead mixture was dispensed onto lysate (5 μL) under green filtered <100 lux light. Plates were shaken at 900 rpm for 2 mins, briefly spun down, and incubated for 2 hrs at RT in the dark. Donor beads were dispensed (5 μL) under green filtered <100 lux light. Plates were shaken at 900 rpm for 2 minutes, briefly spun down, and incubated overnight at RT in the dark. Luminescence was measured with excitation at 689 nm and emission at 570 nm using an EnVision plate reader (PerkinElmer) under green filtered <100 lux light.
To determine the inhibitory potency of test compounds in response to IL-2, the average emission intensity of beads bound to pSTAT5 was measured in a human T cell line. IC50 values were determined from analysis of the inhibition curves of signal intensity versus compound concentration. Data are expressed as pIC50 (negative decadic logarithm IC50) values (mean±standard deviation).

Assay [3] has as its system TSLP-evoked TARC release in human peripheral blood mononuclear cells. The experiment in a line: Inhibition of TSLP-evoked TARC release in human peripheral blood mononuclear cells. The settings on record: read-out: pIC50 ± st. dev., inhibition of TSLP-evoked TARC release (converted). Type of assay: cell-based. From the text: Assay 4: Inhibition of TSLP-Evoked TARC Release in Human Peripheral Blood Mononuclear Cells
Thymic stromal lymphopoietin (TSLP) and thymus and activation-regulated chemokine (TARC) are overexpressed in asthmatic airways, and correlate with disease severity. In the lungs, TSLP may be released by bronchial epithelial cells in response to allergens and viral infections. TSLP signals through an IL-7Rα/TSLPR heterodimer found in a broad range of tissues and cell types, including epithelial cells, endothelial cells, neutrophils, macrophages, and mast cells. The binding of TSLP to its receptor induces a conformational change that activates JAK1 and JAK2 to phosphorylate various transcription factors, including STAT3 and STAT5. In immune cells, this triggers a cascade of intracellular events that result in cell proliferation, anti-apoptosis, dendritic cell migration, and production of Th2 cytokines and chemokines. In peripheral blood mononuclear cells (PBMC), TSLP has a proinflammatory effect by activating myeloid dendritic cells to attract and stimulate T cells, a process mediated by the chemoattractant TARC.
The potencies of the test compounds were measured for inhibition of TARC release.
PBMC aliquots (previously isolated from whole blood and frozen in aliquots at −80° C.) from 3 to 5 donors were thawed at 37° C. and added dropwise to 40 mL pre-warmed, sterile-filtered, complete RPMI media in 50 mL Falcon tubes. Cells were pelleted and resuspended in complete media at 2.24×10^6 cells/mL. […] Cells were allowed to rest for 1 hour at 37° C. with 5% CO2.
Compounds were received as 10 mM stock solutions in DMSO. 3.7-fold serial dilutions were performed to generate 9 concentrations of test compound in DMSO at 300× the final assay test concentration. […] 95 μL of 0.2% DMSO in complete media was added to the untreated control wells. Cells were pre-treated with compound for 1 hour at 37° C. with 5% CO2 prior to stimulation.
Immediately prior to use, an aliquot was thawed and prepared at 20× the final assay concentration in complete media. 10 μL of 20×TSLP was added to each well of PBMC, for a final assay concentration of 10 ng/mL. 10 μL of complete media was added to the unstimulated control wells. Cells were stimulated in the presence of compound for 48 hours at 37° C. with 5% CO2.
Following stimulation, the cell culture supernatants were harvested and TARC levels were detected by enzyme-linked immunosorbent assay (ELISA), using Human CCL17/TARC Quantikine ELISA Kit (R&D Systems # DDN00) according to the manufacturer's instructions.
For dose response analysis, the log [test compound (M)] was plotted versus the percent response values for each donor, and IC50 values were determined using a nonlinear regression analysis with GraphPad Prism Software using the 4-parameter sigmoidal dose-response algorithm with variable slope. Data are expressed as mean pIC50 (negative decadic logarithm IC50) values calculated from pIC50 values of individual donors and rounded to one decimal place.

Assay [4] deals with Tyk2 (Homo sapiens (Human), UniProt P29597). The experiment in a line: Biochemical JAK kinase assay (LanthaScreen), Tyk2. The note with it: converted from pIC50 using Cheng-Prusoff; ATP 10 μM. How it is done:
as §1, §2, §3, §4

The mark [5] stands for this setting: TALL-1, read-out: Tall-1 pIC50 (converted).

Sequence of JAK2 (O60674 whole entry): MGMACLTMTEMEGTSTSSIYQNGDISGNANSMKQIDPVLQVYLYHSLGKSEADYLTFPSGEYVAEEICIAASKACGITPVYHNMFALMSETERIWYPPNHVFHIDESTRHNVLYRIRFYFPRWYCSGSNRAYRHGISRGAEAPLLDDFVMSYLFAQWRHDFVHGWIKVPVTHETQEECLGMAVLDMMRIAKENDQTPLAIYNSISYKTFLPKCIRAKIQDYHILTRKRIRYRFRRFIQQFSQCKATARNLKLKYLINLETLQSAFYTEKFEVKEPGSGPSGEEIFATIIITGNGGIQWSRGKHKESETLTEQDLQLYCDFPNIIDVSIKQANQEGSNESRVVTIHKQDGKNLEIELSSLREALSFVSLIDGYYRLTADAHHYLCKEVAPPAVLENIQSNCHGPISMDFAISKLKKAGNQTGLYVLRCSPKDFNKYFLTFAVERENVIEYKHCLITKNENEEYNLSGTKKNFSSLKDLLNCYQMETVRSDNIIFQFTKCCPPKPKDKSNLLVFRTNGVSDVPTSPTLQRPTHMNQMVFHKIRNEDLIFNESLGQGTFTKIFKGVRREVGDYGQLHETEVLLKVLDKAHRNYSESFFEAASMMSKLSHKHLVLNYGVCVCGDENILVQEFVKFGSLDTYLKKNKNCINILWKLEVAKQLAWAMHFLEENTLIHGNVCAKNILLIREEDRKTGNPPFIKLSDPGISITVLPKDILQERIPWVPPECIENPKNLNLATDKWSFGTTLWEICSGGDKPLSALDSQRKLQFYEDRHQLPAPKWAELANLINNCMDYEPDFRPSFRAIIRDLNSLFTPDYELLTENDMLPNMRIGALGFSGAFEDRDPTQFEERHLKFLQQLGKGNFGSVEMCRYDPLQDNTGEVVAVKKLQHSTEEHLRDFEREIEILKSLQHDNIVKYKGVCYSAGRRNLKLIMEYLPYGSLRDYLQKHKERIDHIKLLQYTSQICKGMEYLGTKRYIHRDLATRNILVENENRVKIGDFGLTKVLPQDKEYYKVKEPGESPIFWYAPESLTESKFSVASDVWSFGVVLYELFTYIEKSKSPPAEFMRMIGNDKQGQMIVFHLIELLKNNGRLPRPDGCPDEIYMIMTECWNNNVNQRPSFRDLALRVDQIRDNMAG
Sequence of Tyk2 (P29597 whole entry): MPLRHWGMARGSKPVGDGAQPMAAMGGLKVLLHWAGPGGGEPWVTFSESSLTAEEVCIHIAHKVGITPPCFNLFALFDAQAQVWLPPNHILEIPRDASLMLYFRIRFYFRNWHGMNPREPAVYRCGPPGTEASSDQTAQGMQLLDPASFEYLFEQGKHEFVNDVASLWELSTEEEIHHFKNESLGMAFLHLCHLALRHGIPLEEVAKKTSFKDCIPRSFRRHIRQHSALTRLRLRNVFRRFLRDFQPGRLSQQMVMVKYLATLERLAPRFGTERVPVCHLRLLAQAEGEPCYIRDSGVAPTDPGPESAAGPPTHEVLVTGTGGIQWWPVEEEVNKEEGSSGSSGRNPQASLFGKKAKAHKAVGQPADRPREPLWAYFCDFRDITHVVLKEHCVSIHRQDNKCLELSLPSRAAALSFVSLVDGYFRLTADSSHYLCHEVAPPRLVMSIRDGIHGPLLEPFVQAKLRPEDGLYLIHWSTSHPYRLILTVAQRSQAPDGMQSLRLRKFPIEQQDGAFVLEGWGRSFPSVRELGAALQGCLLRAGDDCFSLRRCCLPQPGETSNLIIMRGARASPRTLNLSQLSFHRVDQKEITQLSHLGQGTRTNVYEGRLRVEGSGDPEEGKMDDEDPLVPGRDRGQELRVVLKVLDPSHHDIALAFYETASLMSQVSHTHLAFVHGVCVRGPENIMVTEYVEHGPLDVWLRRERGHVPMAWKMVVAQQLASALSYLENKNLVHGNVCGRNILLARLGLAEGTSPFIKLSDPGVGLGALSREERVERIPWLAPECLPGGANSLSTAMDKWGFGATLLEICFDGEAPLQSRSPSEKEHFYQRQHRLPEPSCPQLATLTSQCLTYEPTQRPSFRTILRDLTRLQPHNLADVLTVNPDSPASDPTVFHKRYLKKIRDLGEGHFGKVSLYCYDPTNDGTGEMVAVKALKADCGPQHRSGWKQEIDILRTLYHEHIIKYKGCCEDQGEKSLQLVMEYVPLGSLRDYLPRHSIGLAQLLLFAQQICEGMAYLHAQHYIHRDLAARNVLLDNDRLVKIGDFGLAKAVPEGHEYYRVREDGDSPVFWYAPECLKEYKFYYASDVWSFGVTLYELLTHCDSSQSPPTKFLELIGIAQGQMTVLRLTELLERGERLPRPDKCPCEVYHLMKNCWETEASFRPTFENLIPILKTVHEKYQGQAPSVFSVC

In general, Ki refers to the dissociation constant of the complex between target and ligand, obtained from inhibition or displacement. The compound `CCc1cc(O)ccc1-c1ccc2c(-c3nc4c([nH]3)CN(C)[C@H](C(=O)N3CCN(CCO)C[C@H]3C)C4)n[nH]c2c1` [Example 5, ((S)-2-(6-(2-ethyl-4-hydroxyphenyl)-1H-indazol-3-yl)-5-methyl-4,5,6,7-tetrahydro-3H-imidazo[4,5-c]pyridin-6-yl)((R)-4-(2-hydroxyethyl)-2-methylpiperazin-1-yl)methanone] had a Ki in assay [1] of 0.0316 nM. The IC50 in assay [2] (setting [5]) was 1.58 nM; in assay [3] (Homo sapiens, PBMC, 48 h), 31.6 nM.

As for `CCc1cc(O)ccc1-c1ccc2c(-c3nc4c([nH]3)CN(C(C)C)[C@H](C(=O)N3CC[C@H](N(C)C)C3)C4)n[nH]c2c1` [Example 6, ((S)-3-(dimethylamino)pyrrolidin-1-yl)((S)-2-(6-(2-ethyl-4-hydroxyphenyl)-1H-indazol-3-yl)-5-isopropyl-4,5,6,7-tetrahydro-3H-imidazo[4,5-c]pyridin-6-yl)methan One], the IC50 in assay [2] (setting [5]) is 2 nM; in assay [3] (Homo sapiens, PBMC, 48 h) it was 158 nM.

Consider `CCc1cc(O)ccc1-c1ccc2c(-c3nc4c([nH]3)CN(C(C)C)[C@H](C(=O)N3CC(N(C)C)C3)C4)n[nH]c2c1` [Example 7, (S)-(3-(dimethylamino)azetidin-1-yl)(2-(6-(2-ethyl-4-hydroxyphenyl)-1H-indazol-3-yl)-5-isopropyl-4,5,6,7-tetrahydro-3H-imidazo[4,5-c]pyridin-6-yl)methan One], for which, in assay [1] (converted from pIC50 using Cheng-Prusoff, ATP 3 μM), the “JAK2 pKi” value worked out at 10.5. The “Tyk2 pKi” value in assay [4] is on record as 9.1. Further, the IC50 in assay [2] (IL-2 300 ng/mL, pSTAT5 AlphaLisa, Tall-1 cells, read-out: Tall-1 pIC50 (converted)) is 2.51 nM; in assay [3] (human PBMC, 3 to 5 donors, TSLP 10 ng/mL, 48 hours, ELISA), 63.1 nM.
